Measured values published in publication PMC5933747 (PLoS ONE, 2018).
Like-named read-outs stand apart in the source and are kept apart here.

Key:
[1] = target: T1, human NaV1.5 (Homo sapiens, UniProt Q14524); assay: IonWorks Quattro (IWQ) electrophysiology, human NaV1.5; type: cell-based
[2] = target: T2, human NaV1.4 (Homo sapiens, UniProt P35499); assay: PatchXpress (PX) automated electrophysiology, human NaV1.4; type: cell-based; details: for IC50: PX platform, at least ten cells, two to three data points per concentration
Method: Human NaV (hNaV) stably transfected cell lines in HEK293 or CHO backgrounds and cell culture methods were as previously described. hNaV1.1-hNaV1.7 cells were obtained from Eurofins Pharma Discovery Services (St. Charles, MO), and hNaV1.8 cells were generated in house. Whole cell patch clamp, PatchXpress, and IWQ electrophysiology voltage protocols as well as DRG neuron isolation were carried out as previously described. NaV1.7-NaV1.5 chimeras were generated and evaluated in BacMam transduced U2-OS cells on the IWQ platform as previously described.

[3] = target: T1, human NaV1.5; assay: PatchXpress (PX) automated electrophysiology, human NaV1.5; type: cell-based; details: PX platform; at least ten cells, two to three data points per concentration
[4] = target: T3, human NaV1.7 (Homo sapiens, UniProt Q15858); assay: IonWorks Quattro (IWQ) electrophysiology, human NaV1.7; type: cell-based
[5] = target: T2, human NaV1.4; assay: IonWorks Quattro (IWQ) electrophysiology, human NaV1.4; type: cell-based
[6] = target: T3, human NaV1.7
[7] = target: T3, human NaV1.7; remark: listed apart in the source
[8] = read-out: Glu mutant IWQ IC50 NaV1.5
[9] = read-out: Glu mutant IWQ IC50 NaV1.7
[10] = read-out: Glu mutant IWQ IC50 NaV1.4

T2 sequence (P35499 whole entry): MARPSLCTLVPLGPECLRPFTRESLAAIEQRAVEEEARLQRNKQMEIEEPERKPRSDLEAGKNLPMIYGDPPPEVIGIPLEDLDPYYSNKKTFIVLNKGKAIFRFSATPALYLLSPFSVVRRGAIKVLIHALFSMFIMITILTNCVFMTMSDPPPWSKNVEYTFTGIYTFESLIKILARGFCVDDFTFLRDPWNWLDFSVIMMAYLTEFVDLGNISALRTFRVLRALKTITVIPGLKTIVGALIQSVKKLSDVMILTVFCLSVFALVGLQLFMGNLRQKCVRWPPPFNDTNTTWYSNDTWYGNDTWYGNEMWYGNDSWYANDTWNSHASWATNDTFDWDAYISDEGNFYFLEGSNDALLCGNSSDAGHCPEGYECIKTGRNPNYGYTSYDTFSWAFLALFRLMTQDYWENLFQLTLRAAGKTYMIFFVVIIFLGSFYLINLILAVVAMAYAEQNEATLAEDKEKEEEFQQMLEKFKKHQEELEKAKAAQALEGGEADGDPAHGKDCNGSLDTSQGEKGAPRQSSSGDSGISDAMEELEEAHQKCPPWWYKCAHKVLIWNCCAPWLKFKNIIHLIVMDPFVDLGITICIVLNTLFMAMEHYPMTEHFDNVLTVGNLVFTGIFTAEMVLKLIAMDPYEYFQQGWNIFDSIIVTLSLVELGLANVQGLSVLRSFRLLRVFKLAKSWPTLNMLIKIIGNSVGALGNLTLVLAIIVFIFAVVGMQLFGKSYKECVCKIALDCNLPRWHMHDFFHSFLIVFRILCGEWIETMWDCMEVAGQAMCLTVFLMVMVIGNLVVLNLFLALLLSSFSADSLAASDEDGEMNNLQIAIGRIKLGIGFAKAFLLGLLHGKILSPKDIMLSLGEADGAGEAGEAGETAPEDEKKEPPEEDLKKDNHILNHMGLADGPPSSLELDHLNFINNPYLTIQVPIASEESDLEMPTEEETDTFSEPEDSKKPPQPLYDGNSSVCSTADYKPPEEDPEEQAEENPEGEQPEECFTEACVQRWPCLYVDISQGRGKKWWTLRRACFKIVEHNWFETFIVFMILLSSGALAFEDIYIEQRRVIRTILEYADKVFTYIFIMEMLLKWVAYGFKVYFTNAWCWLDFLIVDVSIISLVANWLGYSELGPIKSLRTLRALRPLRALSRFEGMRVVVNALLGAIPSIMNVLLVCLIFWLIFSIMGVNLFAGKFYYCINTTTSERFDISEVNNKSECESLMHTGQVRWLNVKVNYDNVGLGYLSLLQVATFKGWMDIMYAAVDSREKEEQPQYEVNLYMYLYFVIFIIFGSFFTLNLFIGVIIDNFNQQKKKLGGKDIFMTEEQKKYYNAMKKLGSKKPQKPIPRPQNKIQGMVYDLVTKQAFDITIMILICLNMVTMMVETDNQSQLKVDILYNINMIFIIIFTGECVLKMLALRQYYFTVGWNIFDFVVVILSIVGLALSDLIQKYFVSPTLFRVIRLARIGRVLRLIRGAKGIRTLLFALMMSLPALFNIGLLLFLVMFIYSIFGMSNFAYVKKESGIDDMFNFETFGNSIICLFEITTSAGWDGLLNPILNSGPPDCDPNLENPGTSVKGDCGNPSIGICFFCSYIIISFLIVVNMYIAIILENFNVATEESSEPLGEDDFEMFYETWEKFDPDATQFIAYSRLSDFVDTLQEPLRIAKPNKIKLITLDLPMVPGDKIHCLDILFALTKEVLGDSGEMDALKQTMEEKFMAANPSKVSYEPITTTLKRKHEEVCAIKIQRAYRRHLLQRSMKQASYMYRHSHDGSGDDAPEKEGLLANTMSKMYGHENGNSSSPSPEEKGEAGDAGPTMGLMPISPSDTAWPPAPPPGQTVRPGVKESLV
T1 sequence (Q14524 whole entry): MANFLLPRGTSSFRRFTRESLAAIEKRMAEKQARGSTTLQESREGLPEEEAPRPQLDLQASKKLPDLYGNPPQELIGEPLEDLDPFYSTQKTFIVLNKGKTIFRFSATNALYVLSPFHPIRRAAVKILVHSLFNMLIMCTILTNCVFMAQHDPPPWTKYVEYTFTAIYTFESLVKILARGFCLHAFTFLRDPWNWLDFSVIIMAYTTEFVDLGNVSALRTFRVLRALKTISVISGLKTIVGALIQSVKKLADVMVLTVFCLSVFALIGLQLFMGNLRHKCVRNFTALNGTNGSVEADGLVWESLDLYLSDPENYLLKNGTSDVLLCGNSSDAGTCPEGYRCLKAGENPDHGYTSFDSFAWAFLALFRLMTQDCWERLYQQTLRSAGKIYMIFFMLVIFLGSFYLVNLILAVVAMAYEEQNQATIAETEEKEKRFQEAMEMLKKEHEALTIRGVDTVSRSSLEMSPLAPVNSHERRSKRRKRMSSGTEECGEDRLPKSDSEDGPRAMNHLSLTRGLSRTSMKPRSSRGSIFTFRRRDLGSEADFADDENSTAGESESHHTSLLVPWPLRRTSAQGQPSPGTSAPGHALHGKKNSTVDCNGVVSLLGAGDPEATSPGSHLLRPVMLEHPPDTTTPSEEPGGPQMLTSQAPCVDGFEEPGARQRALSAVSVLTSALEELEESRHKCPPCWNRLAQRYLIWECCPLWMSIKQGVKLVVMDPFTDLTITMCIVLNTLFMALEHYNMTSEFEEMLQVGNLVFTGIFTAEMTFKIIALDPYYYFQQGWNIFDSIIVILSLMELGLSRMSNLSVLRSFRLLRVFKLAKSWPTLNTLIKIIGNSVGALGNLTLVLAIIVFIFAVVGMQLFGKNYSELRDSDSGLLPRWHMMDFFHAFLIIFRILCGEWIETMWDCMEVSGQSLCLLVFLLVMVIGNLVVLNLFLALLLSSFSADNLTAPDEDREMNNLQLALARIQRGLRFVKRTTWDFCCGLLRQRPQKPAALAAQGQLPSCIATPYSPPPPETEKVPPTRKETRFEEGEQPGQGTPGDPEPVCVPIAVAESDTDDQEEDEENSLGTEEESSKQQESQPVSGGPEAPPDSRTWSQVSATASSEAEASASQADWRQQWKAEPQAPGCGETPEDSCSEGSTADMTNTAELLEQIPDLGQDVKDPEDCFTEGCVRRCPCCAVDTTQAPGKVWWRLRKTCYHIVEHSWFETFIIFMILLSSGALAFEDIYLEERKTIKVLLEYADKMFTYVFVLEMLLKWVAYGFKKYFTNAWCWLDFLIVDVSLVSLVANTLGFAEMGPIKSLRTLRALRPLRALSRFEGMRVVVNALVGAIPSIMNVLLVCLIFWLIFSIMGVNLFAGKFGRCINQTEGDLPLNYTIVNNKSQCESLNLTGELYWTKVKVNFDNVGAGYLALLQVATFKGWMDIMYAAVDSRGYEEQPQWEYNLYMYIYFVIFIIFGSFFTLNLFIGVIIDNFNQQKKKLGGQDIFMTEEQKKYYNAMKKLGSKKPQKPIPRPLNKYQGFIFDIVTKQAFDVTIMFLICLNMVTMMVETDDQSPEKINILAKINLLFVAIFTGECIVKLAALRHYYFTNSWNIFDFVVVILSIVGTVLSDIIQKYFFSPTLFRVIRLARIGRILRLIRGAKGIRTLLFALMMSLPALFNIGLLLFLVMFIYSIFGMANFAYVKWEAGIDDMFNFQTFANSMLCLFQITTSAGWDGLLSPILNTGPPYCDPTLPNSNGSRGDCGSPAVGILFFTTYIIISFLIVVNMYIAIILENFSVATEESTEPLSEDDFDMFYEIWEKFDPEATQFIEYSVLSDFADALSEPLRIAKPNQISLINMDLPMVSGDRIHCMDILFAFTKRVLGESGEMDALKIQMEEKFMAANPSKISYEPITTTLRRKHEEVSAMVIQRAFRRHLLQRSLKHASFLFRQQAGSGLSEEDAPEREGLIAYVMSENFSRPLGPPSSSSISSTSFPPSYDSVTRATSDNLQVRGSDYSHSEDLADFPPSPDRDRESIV
JzTx-V(1–29), sequence (Q2PAY4 54-83): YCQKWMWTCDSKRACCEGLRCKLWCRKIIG

Compound: CC[C@H](C)[C@H](NC(=O)[C@H](CCC(=O)O)NC(=O)[C@H](CCCCN)NC(=O)[C@H](CCCNC(=N)N)NC(=O)[C@@H]1CSSC[C@@H]2NC(=O)[C@H](C)NC(=O)[C@H](CCCNC(=N)N)NC(=O)[C@H](CCCCN)NC(=O)[C@H](CO)NC(=O)[C@H](CC(=O)O)NC(=O)[C@@H]3CSSC[C@H](NC(=O)[C@H](CCCNC(=N)N)NC(=O)[C@H](CC(C)C)NC(=O)CNC(=O)[C@H](CCC(=O)O)NC(=O)[C@H](CSSC[C@H](NC(=O)[C@@H](N)Cc4ccc(O)cc4)C(=O)N[C@@H](CCC(N)=O)C(=O)N[C@@H](CCCCN)C(=O)N[C@@H](Cc4c[nH]c5ccccc45)C(=O)N[C@@H](CCSC)C(=O)N[C@@H](Cc4c[nH]c5ccccc45)C(=O)N[C@@H]([C@@H](C)O)C(=O)N3)NC2=O)C(=O)N[C@@H](CCCCN)C(=O)N[C@@H](CC(C)C)C(=O)N[C@@H](Cc2c[nH]c3ccccc23)C(=O)N1)C(N)=O [Peptide 1, [Glu28]JzTx-V(1–29)]
- IC50 ([1]; human, read-out: Glu mutant IWQ IC50 NaV1.5): > 5000 nM
- selectivity for NaV1.7 over NaV1.4 ([2]; PX platform IC50 ratio): 500 fold

Compound: C#CC[C@H](N)C(=O)N[C@H]1CSSC[C@@H]2NC(=O)[C@@H]3CSSC[C@@H](C(=O)N[C@@H](CCCNC(=N)N)C(=O)N[C@@H](CCCCN)C(=O)N[C@@H](CCC(=O)O)C(=O)N[C@H](C(N)=O)[C@@H](C)CC)NC(=O)[C@H](Cc4c[nH]c5ccccc45)NC(=O)[C@H](CC(C)C)NC(=O)[C@H](CCCCN)NC(=O)[C@H](CSSC[C@H](NC(=O)[C@H]([C@@H](C)O)NC(=O)[C@H](Cc4c[nH]c5ccccc45)NC(=O)[C@H](CCCC)NC(=O)[C@H](Cc4c[nH]c5ccccc45)NC(=O)[C@H](CCCCN)NC(=O)[C@H](CCC(N)=O)NC1=O)C(=O)N[C@@H](CC(=O)O)C(=O)N[C@@H](CO)C(=O)N[C@@H](CCCCN)C(=O)N[C@@H](CCCNC(=N)N)C(=O)N[C@@H](C)C(=O)N3)NC(=O)[C@H](CCCNC(=N)N)NC(=O)[C@H](CC(C)C)NC(=O)CNC(=O)[C@H](CCC(=O)O)NC2=O [Peptide 4, [Pra1;Nle6;Glu28]JzTx-V(1–29)]
- IC50 [3]: 4600 nM
- IC50 [2]: 89 nM

Compound: C#CC[C@@H]1NC(=O)[C@H](CC(=O)O)NC(=O)[C@@H]2CSSC[C@@H]3NC(=O)[C@H](CCCNC(=N)N)NC(=O)[C@H](CC(C)C)NC(=O)CNC(=O)[C@H](CCC(=O)O)NC(=O)[C@H](CSSC[C@H](NC(=O)[C@@H](N)Cc4ccc(O)cc4)C(=O)N[C@@H](CCC(N)=O)C(=O)N[C@@H](CCCCN)C(=O)N[C@@H](Cc4c[nH]c5ccccc45)C(=O)N[C@@H](CCCC)C(=O)N[C@@H](Cc4c[nH]c5ccccc45)C(=O)N[C@@H]([C@@H](C)O)C(=O)N2)NC(=O)[C@H](CSSC[C@@H](C(=O)N[C@@H](CCCNC(=N)N)C(=O)N[C@@H](CCCCN)C(=O)N[C@@H](CCC(=O)O)C(=O)N[C@H](C(N)=O)[C@@H](C)CC)NC(=O)[C@H](Cc2c[nH]c4ccccc24)NC(=O)[C@H](CC(C)C)NC(=O)[C@H](CCCCN)NC3=O)NC(=O)[C@H](C)NC(=O)[C@H](CCCNC(=N)N)NC(=O)[C@H](CCCCN)NC1=O [Peptide 5, [Nle6;Pra11;Glu28]JzTx-V(1–29)]
- IC50 [3]: 6000 nM
- IC50 [2]: 194 nM

Compound: C#CC[C@@H]1NC(=O)[C@H](CCCNC(=N)N)NC(=O)[C@H](CCCCN)NC(=O)[C@H](CO)NC(=O)[C@H](CC(=O)O)NC(=O)[C@@H]2CSSC[C@@H]3NC(=O)[C@H](CCCNC(=N)N)NC(=O)[C@H](CC(C)C)NC(=O)CNC(=O)[C@H](CCC(=O)O)NC(=O)[C@H](CSSC[C@H](NC(=O)[C@@H](N)Cc4ccc(O)cc4)C(=O)N[C@@H](CCC(N)=O)C(=O)N[C@@H](CCCCN)C(=O)N[C@@H](Cc4c[nH]c5ccccc45)C(=O)N[C@@H](CCCC)C(=O)N[C@@H](Cc4c[nH]c5ccccc45)C(=O)N[C@@H]([C@@H](C)O)C(=O)N2)NC(=O)[C@H](CSSC[C@@H](C(=O)N[C@@H](CCCNC(=N)N)C(=O)N[C@@H](CCCCN)C(=O)N[C@@H](CCC(=O)O)C(=O)N[C@H](C(N)=O)[C@@H](C)CC)NC(=O)[C@H](Cc2c[nH]c4ccccc24)NC(=O)[C@H](CC(C)C)NC(=O)[C@H](CCCCN)NC3=O)NC1=O [Peptide 6, [Nle6;Pra14;Glu28]JzTx-V(1–29)]
- IC50 [3]: 3500 nM
- IC50 [2]: 110 nM

Compound: C#CC[C@@H]1NC(=O)[C@@H]2CSSC[C@H](NC(=O)[C@@H](N)Cc3ccc(O)cc3)C(=O)N[C@@H](CCC(N)=O)C(=O)N[C@@H](CCCCN)C(=O)N[C@@H](Cc3c[nH]c4ccccc34)C(=O)N[C@@H](CCCC)C(=O)N[C@@H](Cc3c[nH]c4ccccc34)C(=O)N[C@@H]([C@@H](C)O)C(=O)N[C@H]3CSSC[C@H](NC(=O)[C@H](CCCNC(=N)N)NC(=O)[C@H](CC(C)C)NC(=O)CNC1=O)C(=O)N[C@@H](CCCCN)C(=O)N[C@@H](CC(C)C)C(=O)N[C@@H](Cc1c[nH]c4ccccc14)C(=O)N[C@H](C(=O)N[C@@H](CCCNC(=N)N)C(=O)N[C@@H](CCCCN)C(=O)N[C@@H](CCC(=O)O)C(=O)N[C@H](C(N)=O)[C@@H](C)CC)CSSC[C@H](NC(=O)[C@H](C)NC(=O)[C@H](CCCNC(=N)N)NC(=O)[C@H](CCCCN)NC(=O)[C@H](CO)NC(=O)[C@H](CC(=O)O)NC3=O)C(=O)N2 [Peptide 7, [Nle6;Pra17;Glu28]JzTx-V(1–29)]
- IC50 [3]: 3100 nM
- IC50 [2]: 130 nM

Compound: CC[C@H](C)[C@H](NC(=O)[C@@H](NC(=O)[C@H](CCCCN)NC(=O)[C@H](CCCNC(=N)N)NC(=O)[C@@H]1CSSC[C@@H]2NC(=O)[C@H](C)NC(=O)[C@H](CCCNC(=N)N)NC(=O)[C@H](CCCCN)NC(=O)[C@H](CO)NC(=O)[C@H](CC(=O)O)NC(=O)[C@@H]3CSSC[C@H](NC(=O)[C@H](CCCNC(=N)N)NC(=O)[C@H](CC(C)C)NC(=O)CNC(=O)[C@H](CCC(=O)O)NC(=O)[C@H](CSSC[C@H](NC(=O)[C@@H](N)Cc4ccc(O)cc4)C(=O)N[C@@H](CCC(N)=O)C(=O)N[C@@H](CCCCN)C(=O)N[C@@H](CCC(=O)O)C(=O)N[C@@H](CCSC)C(=O)N[C@@H](Cc4c[nH]c5ccccc45)C(=O)N[C@@H]([C@@H](C)O)C(=O)N3)NC2=O)C(=O)N[C@@H](CCCCN)C(=O)N[C@@H](CC(C)C)C(=O)N[C@@H](Cc2c[nH]c3ccccc23)C(=O)N1)[C@@H](C)CC)C(N)=O [W5 Glu mutant]
- IC50 [1, 8]: > 10000 nM
- IC50 [4, 9]: > 10000 nM
- IC50 [5, 10]: > 10000 nM

Compound: CC[C@H](C)[C@H](NC(=O)[C@@H](NC(=O)[C@H](CCCCN)NC(=O)[C@H](CCCNC(=N)N)NC(=O)[C@@H]1CSSC[C@@H]2NC(=O)[C@H](C)NC(=O)[C@H](CCCNC(=N)N)NC(=O)[C@H](CCCCN)NC(=O)[C@H](CO)NC(=O)[C@H](CC(=O)O)NC(=O)[C@@H]3CSSC[C@H](NC(=O)[C@H](CCCNC(=N)N)NC(=O)[C@H](CC(C)C)NC(=O)CNC(=O)[C@H](CCC(=O)O)NC(=O)[C@H](CSSC[C@H](NC(=O)[C@@H](N)Cc4ccc(O)cc4)C(=O)N[C@@H](CCC(N)=O)C(=O)N[C@@H](CCCCN)C(=O)N[C@@H](Cc4c[nH]c5ccccc45)C(=O)N[C@@H](CCSC)C(=O)N[C@@H](Cc4c[nH]c5ccccc45)C(=O)N[C@@H]([C@@H](C)O)C(=O)N3)NC2=O)C(=O)N[C@@H](CCCCN)C(=O)N[C@@H](CC(C)C)C(=O)N[C@@H](C)C(=O)N1)[C@@H](C)CC)C(N)=O [W24 Ala mutant]
- IC50 ([1]; read-out: Ala mutant IWQ IC50 NaV1.5): > 10000 nM
- IC50 ([4]; read-out: Ala mutant IWQ IC50 NaV1.7): > 10000 nM
- IC50 ([5]; read-out: Ala mutant IWQ IC50 NaV1.4): > 10000 nM

Compound: CC[C@H](C)[C@H](NC(=O)[C@@H](NC(=O)[C@H](CCCCN)NC(=O)[C@H](CCCNC(=N)N)NC(=O)[C@@H]1CSSC[C@@H]2NC(=O)[C@H](C)NC(=O)[C@H](CCCNC(=N)N)NC(=O)[C@H](CCCCN)NC(=O)[C@H](CO)NC(=O)[C@H](CC(=O)O)NC(=O)[C@@H]3CSSC[C@H](NC(=O)[C@H](CCCNC(=N)N)NC(=O)[C@H](CC(C)C)NC(=O)CNC(=O)[C@H](CCC(=O)O)NC(=O)[C@H](CSSC[C@H](NC(=O)[C@@H](N)Cc4ccc(O)cc4)C(=O)N[C@@H](CCC(N)=O)C(=O)N[C@@H](CCCCN)C(=O)N[C@@H](Cc4c[nH]c5ccccc45)C(=O)N[C@@H](CCSC)C(=O)N[C@@H](Cc4c[nH]c5ccccc45)C(=O)N[C@@H]([C@@H](C)O)C(=O)N3)NC2=O)C(=O)N[C@@H](CCCCN)C(=O)N[C@@H](CC(C)C)C(=O)N[C@@H](CCC(=O)O)C(=O)N1)[C@@H](C)CC)C(N)=O [W24 Glu mutant]
- IC50 [1, 8]: > 10000 nM
- IC50 [4, 9]: 9900 nM
- IC50 [5, 10]: > 10000 nM

Compound: CyA-[Nle6;Pra17;Glu28]JzTx-V(1–29) (peptide)
- NaV1.7 IC50 (nM), block of human NaV1.7 current, PatchXpress (PX) platform [6]: 0.8 nM

Compound: JzTx-V(1–29) (from UniProt Q2PAY4 54-83) (peptide)
- NaV1.7 IC50 (nM), block of human NaV1.7 current in HEK293 cells, PatchXpress (PX) platform [6]: 0.6 nM
- potency (IC50) of inhibition of NaV1.7 by manual patch clamp, voltage protocol with 20% of channels inactivated [7]: 0.15 nM

Compound: Pra-[Nle6]JzTx-V(1–29) (peptide)
- NaV1.7 IC50 (nM), block of human NaV1.7 current, PatchXpress (PX) platform [6]: 1.2 nM

Compound: [Glu28]JzTx-V(1–29) (peptide)
- NaV1.7 IC50 (nM), block of human NaV1.7 current, PatchXpress (PX) platform [6]: 0.6 nM

Compound: [Nle6;Pra11;Glu28]JzTx-V(1–29) (peptide)
- NaV1.7 IC50 (nM), block of human NaV1.7 current, PatchXpress (PX) platform [6]: 0.5 nM

Compound: [Nle6;Pra14;Glu28]JzTx-V(1–29) (peptide)
- NaV1.7 IC50 (nM), block of human NaV1.7 current, PatchXpress (PX) platform [6]: 0.5 nM

Compound: [Nle6;Pra17;Glu28]JzTx-V(1–29) (peptide)
- NaV1.7 IC50 (nM), block of human NaV1.7 current, PatchXpress (PX) platform [6]: 3.6 nM

Compound: [Pra1;Nle6;Glu28]JzTx-V(1–29) (peptide)
- NaV1.7 IC50 (nM), block of human NaV1.7 current, PatchXpress (PX) platform [6]: 0.3 nM
